According to patent US20210277246A1, “PROBE FOR DETECTING CARBAPENEM-RESISTANT BACTERIA AND USE THEREOF” (priority 2018, published 2021):

Legend:
[1] = tested on: GES; assay: Fluorogenic assay (OMCL01203 probe); assay type: biochemical; conditions: Klebsiella pneumoniae, 1 isolate
Experimental: (§1) Briefly, 10 μL of a sample was lysed with a Tris-HCl buffer (B-PER, Thermo Scientific Pierce) and then vortexed for 1 minute. After culturing for 30 minutes at room temperature and centrifuging for 5 minutes (10,000 g), 30 μL of the supernatant was reacted with 100 μL of PBS and 13 μL of the fluorescent probe (1 mM). Then, fluorescence was measured for 50 minutes with 5-minute intervals using a fluorescence plate reader (Infinite F200pro, Tecan Group Ltd.).
(§2) In addition, the detection efficiency of the fluorescence detection method using the OMCL01203 probe was compared for carbapenemase-producing carbapenem-resistant bacteria (CP-CRE) and non-carbapenemase-producing carbapenem-resistant bacteria (non-CP-CRE) with mCIM, CarbaNP and CIT methods.

[2] = tested on: OXA; assay: Fluorogenic assay (OMCL01203 probe); assay type: biochemical; conditions: Escherichia coli, 3 isolates, number of isolates in brackets
Experimental: as §1, §2

[3] = tested on: GES; assay: Fluorogenic assay (OMCL01203 probe); assay type: biochemical; parameters: key: Pos, positive; Neg, negative; conditions: Escherichia coli, 2 isolates
Experimental: as §1, §2

[4] = tested on: IMP; assay: Fluorogenic assay (OMCL01203 probe); assay type: biochemical; parameters: key: Pos, positive; Neg, negative; conditions: Escherichia coli, 1 isolate
Experimental: as §1, §2

[5] = tested on: VIM; assay: Fluorogenic assay (OMCL01203 probe); assay type: biochemical; parameters: key: Pos, positive; Neg, negative
Experimental: as §1, §2

[6] = tested on: NDM/OXA; assay: Fluorogenic assay (OMCL01203 probe); assay type: biochemical; parameters: key: Pos, positive; Neg, negative; conditions: NDM/OXA co-producing; Klebsiella pneumoniae; 1 isolate
Experimental: as §1, §2

[7] = tested on: non-CP-CRE; assay: Fluorogenic assay (OMCL01203 probe); assay type: biochemical; parameters: key: Pos, positive; Neg, negative
Experimental: as §1, §2

[8] = tested on: KPC/OXA; assay: Fluorogenic assay (OMCL01203 probe); assay type: biochemical; parameters: key: Pos, positive; Neg, negative; conditions: KPC/OXA co-producing; Klebsiella pneumoniae; 2 isolates
Experimental: as §1, §2

[9] = tested on: OXA; assay: Fluorogenic assay (OMCL01203 probe); assay type: biochemical; parameters: key: Pos, positive; Neg, negative
Experimental: as §1, §2

[10] = tested on: NDM; assay: Fluorogenic assay (OMCL01203 probe); assay type: biochemical; parameters: key: Pos, positive; Neg, negative
Experimental: as §1, §2

[11] = tested on: KPC; assay: Fluorogenic assay (OMCL01203 probe); assay type: biochemical; parameters: key: Pos, positive; Neg, negative
Experimental: as §1, §2

[12] = tested on: CTX-M (ESBL-producer); assay: Fluorogenic assay (OMCL01203 probe); assay type: biochemical; parameters: key: Pos, positive; Neg, negative
Experimental: as §1, §2

[13] = tested on: non-producer; assay: Fluorogenic assay (OMCL01203 probe); assay type: biochemical; parameters: key: Pos, positive; Neg, negative
Experimental: as §1, §2

[14] = tested on: CPE (carbapenemase-producing Enterobacteriaceae); assay: Fluorescent probe detection in lysed clinical isolates; assay type: biochemical; conditions: CPE total; 61 isolates
Experimental: (§3) The detection efficiency of carbapenemase-producing carbapenem-resistant bacteria of a control probe OMCL01201 (CPC-1 described in Chinese Patent Publication No. CN106279178A) and the OMCL01203 probe of the present disclosure was evaluated at Gangnam St. Mary's Hospital for the bacteria described in Table 1.
as §1

[15] = tested on: Non-CP CRE; assay: as above; assay type: biochemical
Experimental: as §3, §1

[16] = tested on: non-CPE (negative bacteria); assay: Fluorogenic assay (OMCL01203 probe), all non-CPE of Table 2; assay type: biochemical
Experimental: as §1, §2

[17] = tested on: GES; assay: Fluorescent probe detection in lysed clinical isolates; assay type: biochemical, Enterobacteriaceae; conditions: Ambler class A, 2 isolates
Experimental: as §3, §1

[18] = tested on: IMP; assay: as above; assay type: biochemical, Enterobacteriaceae; conditions: Ambler class B, 1 isolate
Experimental: as §3, §1

[19] = tested on: VIM; assay: as above; assay type: biochemical, Enterobacteriaceae; conditions: Ambler class B, 7 isolates
Experimental: as §3, §1

[20] = tested on: NDM/OXA; assay: as above; assay type: biochemical, Enterobacteriaceae; conditions: NDM/OXA co-producing; 1 isolate
Experimental: as §3, §1

[21] = tested on: KPC/OXA; assay: as above; assay type: biochemical, Enterobacteriaceae; conditions: KPC/OXA co-producing; 2 isolates
Experimental: as §3, §1

[22] = tested on: OXA; assay: as above; assay type: biochemical, Enterobacteriaceae; conditions: Ambler class D, 6 isolates
Experimental: as §3, §1

[23] = tested on: NDM; assay: as above; assay type: biochemical, Enterobacteriaceae; conditions: Ambler class B, 9 isolates
Experimental: as §3, §1

[24] = tested on: KPC; assay: as above; assay type: biochemical, Enterobacteriaceae; conditions: Ambler class A, 33 isolates
Experimental: as §3, §1

[25] = tested on: Citrobacter freundii (KPC); assay: MIC of carbapenems for isolates; assay type: cell-based; conditions: 1 isolate
[26] = tested on: Escherichia coli (IMP); assay: MIC of carbapenems for isolates; assay type: cell-based; conditions: 1 isolate
[27] = tested on: Citrobacter freundii (NDM); assay: MIC of carbapenems for isolates; assay type: cell-based; conditions: 1 isolate
[28] = tested on: Klebsiella pneumoniae (non-producer); assay: MIC of carbapenems for isolates; assay type: cell-based; conditions: 21 isolates
[29] = tested on: Enterobacter cloacae (VIM); assay: MIC of carbapenems for isolates; assay type: cell-based; conditions: 1 isolate
[30] = tested on: Klebsiella pneumoniae (VIM); assay: MIC of carbapenems for isolates; assay type: cell-based; conditions: 1 isolate
[31] = tested on: Citrobacter freundii (OXA); assay: MIC of carbapenems for isolates; assay type: cell-based; conditions: 1 isolate
[32] = tested on: Morganella morganii (NDM); assay: MIC of carbapenems for isolates; assay type: cell-based; conditions: 1 isolate
[33] = tested on: Klebsiella pneumoniae (NDM/OXA); assay: MIC of carbapenems for isolates; assay type: cell-based; conditions: NDM/OXA co-producing, 1 isolate
[34] = tested on: Escherichia coli (non-producer); assay: MIC of carbapenems for isolates; assay type: cell-based; conditions: 32 isolates
[35] = tested on: Klebsiella pneumoniae (NDM); assay: MIC of carbapenems for isolates; assay type: cell-based; conditions: 1 isolate
[36] = tested on: Citrobacter freundii (non-CP-CRE); assay: MIC of carbapenems for isolates; assay type: cell-based; conditions: 1 isolate
[37] = tested on: Klebsiella oxytoca (VIM); assay: MIC of carbapenems for isolates; assay type: cell-based; conditions: 1 isolate
[38] = tested on: Enterobacter cloacae (NDM); assay: MIC of carbapenems for isolates; assay type: cell-based; conditions: 2 isolates
[39] = tested on: Klebsiella pneumoniae (GES); assay: MIC of carbapenems for isolates; assay type: cell-based; conditions: 1 isolate
[40] = tested on: Klebsiella aerogenes (KPC); assay: MIC of carbapenems for isolates; assay type: cell-based; conditions: 1 isolate
[41] = tested on: Enterobacter cloacae (non-CP-CRE); assay: MIC of carbapenems for isolates; assay type: cell-based; conditions: 10 isolates
[42] = tested on: Escherichia coli (KPC); assay: MIC of carbapenems for isolates; assay type: cell-based; conditions: 3 isolates
[43] = tested on: Escherichia coli (NDM); assay: MIC of carbapenems for isolates; assay type: cell-based; conditions: 4 isolates
[44] = tested on: Klebsiella oxytoca (KPC); assay: MIC of carbapenems for isolates; assay type: cell-based; conditions: 1 isolate
[45] = Klebsiella pneumoniae, 1 isolate
[46] = Citrobacter freundii, 1 isolate

C[C@@H](O)[C@H]1C(=O)N2C(C(=O)O)=C(COc3ccc(COc4ccc5ccc(=O)oc5c4)cc3)[C@H](C)[C@H]12 [OMCL01203]
Fluore result [1]: Neg(1) | Fluore result ([2]; isolates testing negative): Neg(2) | Fluore result ([2]; isolates testing positive): Pos(1); | Fluore result [3]: Pos | Fluore result [4]: Pos | Fluore result ([5]; Citrobacter freundii, 4 isolates): Pos | Fluore result ([5]; Enterobacter cloacae, 1 isolate): Pos | Fluore result ([5]; Klebsiella oxytoca, 1 isolate): Pos | Fluore result [5, 45]: Pos | Fluore result [6]: Pos | Fluore result [7, 46]: Neg | Fluore result ([7]; Enterobacter amnigenus, 4 isolates): Neg | Fluore result ([7]; Enterobacter cloacae, 10 isolates): Neg | Fluore result ([7]; Escherichia coli, 8 isolates): Neg | Fluore result ([7]; Klebsiella aerogenes, 3 isolates): Neg | Fluore result ([7]; Klebsiella pneumoniae, 22 isolates): Neg | Fluore result [8]: Pos | Fluore result [9, 46]: Pos | Fluore result ([9]; Klebsiella pneumoniae, 2 isolates): Pos | Fluore result [10, 46]: Pos | Fluore result ([10]; Enterobacter cloacae, 2 isolates): Pos | Fluore result ([10]; Escherichia coli, 4 isolates): Pos | Fluore result [10, 45]: Pos | Fluore result ([10]; Morganella morganii, 1 isolate): Pos | Fluore result [11, 46]: Pos | Fluore result ([11]; Escherichia coli, 3 isolates): Pos | Fluore result ([11]; Klebsiella aerogenes, 1 isolate): Pos | Fluore result ([11]; Klebsiella oxytoca, 1 isolate): Pos | Fluore result ([11]; Klebsiella pneumoniae, 30 isolates): Pos | Fluore result ([12]; Escherichia coli, 29 isolates): Neg | Fluore result ([12]; Klebsiella pneumoniae, 24 isolates): Neg | Fluore result ([13]; Escherichia coli, 32 isolates): Neg | Fluore result ([13]; Klebsiella pneumoniae, 21 isolates): Neg | Pos. % [14]: 97% | result(s) (isolates determined positive) [14]: 59 | Pos. % ([15]; Non-CP CRE, 40 isolates): 0% | result(s) (isolates determined positive) ([15]; Non-CP CRE, 40 isolates): 0 | determination of non-CPE species ([15]; all 40 non-CPE species): negative | determination of negative bacteria [16]: negative | Pos. % [17]: 100% | result(s) (isolates determined positive) [17]: 2 | Pos. % [18]: 100% | result(s) (isolates determined positive) [18]: 1 | Pos. % [19]: 100% | result(s) (isolates determined positive) [19]: 7 | Pos. % [20]: 100% | result(s) (isolates determined positive) [20]: 1 | Pos. % [21]: 100% | result(s) (isolates determined positive) [21]: 2 | Pos. % [22]: 83% | result(s) (isolates determined positive) [22]: 5 | Pos. % [23]: 89% | result(s) (isolates determined positive) [23]: 8 | Pos. % [24]: 100% | result(s) (isolates determined positive) [24]: 33

C[C@@H](O)[C@H]1C(=O)N2C(C(=O)O)=C(S[C@@H]3CN[C@H](C(=O)Nc4cccc(C(=O)O)c4)C3)[C@H](C)[C@H]12 [ERT, ertapenem]
MIC [25]: > 16 µg/mL | MIC [26]: 4 µg/mL | MIC [27]: > 16 µg/mL | MIC [28]: ≤ 0.125 µg/mL | MIC [29]: 1 µg/mL | MIC [30]: > 16 µg/mL | MIC [31]: 1 µg/mL | MIC [32]: 2 µg/mL | MIC [33]: 16 µg/mL | MIC [34]: ≤ 0.125 µg/mL | MIC [35]: > 16 µg/mL | MIC [36]: 2 µg/mL | MIC [37]: 0.5 µg/mL | MIC [38]: > 16 µg/mL | MIC [39]: > 16 µg/mL | MIC [40]: > 16 µg/mL | MIC [41]: 2 to 16 µg/mL | MIC [42]: 8 µg/mL | MIC [43]: > 16 µg/mL | MIC [44]: > 16 µg/mL
